Results reported in patent US8501781B2 (priority 2009, dated 2013).
Marks after values point to notes of the source that are not given here.

Experiment: logP by HPLC (EEC Directive 79/831 Annex V.A8)
Format: physicochemical
[1] = [b] LC-MS, acidic range, pH 2.7, 0.1% aqueous formic acid and acetonitrile
[2] = [c] LC-MS, neutral range, pH 7.8, 0.001 molar aqueous ammonium bicarbonate and acetonitrile

For `O=C(OC1CCCCC1)c1csc(C2CCN(C(=O)Cc3cc(C(F)(F)F)ccc3Cl)CC2)n1` [Example 12], the logP [1] was 4.64^[b].
Work on `O=C(OC1CCCCC1)c1csc(C2CCNCC2)n1` [VII-1, 4-{4-[(Cyclohexyloxy)carbonyl]-1,3-thiazol-2-yl}piperidinium chloride] yielded a chromatographic logP (pH 2.7, given in the preparation examples, read-out: log P (pH 2.7)) of 1.25.
For `O=C(OC1CCCc2ccccc21)c1csc(C2(F)CCN(C(=O)Cn3nc(C(F)F)cc3C(F)F)CC2)n1` (stereo not drawn) [Example 68], the logP [1] was 4.12^[b].
In the case of `Cc1ccc(C)c(NC(=O)N2CCC(c3nc(C(=O)Oc4ccccc4F)cs3)CC2)c1` [Example 147], the logP [1] is reported as 3.27^[b].
For `O=C(OC1CCCc2ccccc21)c1csc(C2CCN(C(=O)Cc3cc(Cl)ccc3Cl)CC2)n1` (stereo not drawn) [Example 99], the logP [1] was 4.73^[b].
In the case of `O=C(OC1CCCCC1)c1csc(C2CCN(C(=S)Nc3cc(F)ccc3F)CC2)n1` [Example 67], the logP [1] is reported as 3.86^[b].
With `Cc1ccc(C)c(NC(=O)N2CCC(c3nc(C(=O)OC4CCCc5ccccc54)cs3)CC2)c1` (stereo not drawn) [Example 78] the logP [1] was 4.09^[b].
With `Cc1ccc(C)c(NC(=O)N2CCC(c3nc(C(=O)OCc4c(F)cccc4Cl)cs3)CC2)c1` [Example 120] the logP [1] was 3.66^[b].
In the case of `Cc1ccc(C)c(NC(=O)N2CCC(c3nc(C(=O)OC(C)c4c(Cl)cccc4Cl)cs3)CC2)c1` (stereo not drawn) [Example 156], the logP [1] is reported as 4.35^[b].
In the case of `COc1ccc(Cl)cc1NC(=O)N1CCC(c2nc(C(=O)OC3CCCc4ccccc43)cs2)CC1` (stereo not drawn) [Example 97], the logP [1] is reported as 4.64^[b].
In the case of `Cc1nc(C)n(CC(=O)N2CCC(c3nc(C(=O)Oc4cccc5ccccc45)cs3)CC2)n1` [Example 28], the logP [1] is reported as 2.17^[b].
For `O=C(OCc1ccccc1Br)c1csc(C2CCN(C(=O)Nc3cc(C(F)(F)F)ccc3F)CC2)n1` [Example 111], the logP [1] was 4.29^[c]; 4.29^[b] and the logP [2] was 4.29^[c]; 4.29^[b].
In the case of `O=C(OC1CCCCC1)c1csc(C2CCN(C(=O)Cc3cc(C(F)(F)F)ccc3C(F)(F)F)CC2)n1` [Example 16], the logP [1] is reported as 4.81^[b].
`O=C(OCc1ccccc1Br)c1csc(C2CCN(C(=O)Cc3cc(Cl)ccc3Cl)CC2)n1` [Example 87] gave a logP [1] of 4.41 and a logP [2] of 4.44.
With `COc1cccc(F)c1OC(=O)c1csc(C2CCN(C(=O)Nc3cc(C)ccc3C)CC2)n1` [Example 145] the logP [1] was 3.28^[b].
Work on `Cc1ccc(Cl)cc1NC(=S)N1CCC(c2nc(C(=O)OCc3ccccc3Br)cs2)CC1` [Example 112] yielded a logP [1] of 4.3 and a logP [2] of 4.27.
For `Cc1ccc([N+](=O)[O-])cc1NC(=O)N1CCC(c2nc(C(=O)OC3CCCCC3)cs2)CC1` [Example 94], the logP [1] was 3.62^[b].
For `Cc1ccc(C)c(NC(=O)N2CCC(c3nc(C(=O)OCc4c(F)cccc4Br)cs3)CC2)c1` [Example 155], the logP [1] was 3.79^[b].
For `Cc1ccc(C)c(NC(=O)N2CCC(c3nc(C(=O)OCc4c(Cl)cccc4Cl)cs3)CC2)c1` [Example 137], the logP [1] was 3.97^[b].
For `O=C(OC1CCCCC1)c1csc(C2CCN(C(=O)Nc3cc(C(F)(F)F)ccc3Cl)CC2)n1` [Example 61], the logP [1] was 4.76^[b].
In the case of `Cc1cc(C(F)(F)F)nn1CC(=O)N1CCN(c2nc(C(=O)OCc3ccc(Cl)cc3Cl)cs2)CC1` [Example 44], the logP [1] is reported as 4.12^[c]; 4.12^[b] and the logP [2] is reported as 4.12^[c]; 4.12^[b].
With `Cc1ccc(C)c(NC(=S)N2CCC(c3nc(C(=O)OC4CCCc5ccccc54)cs3)CC2)c1` (stereo not drawn) [Example 81] the logP [1] was 4.39^[b].
With `Cc1ccc(C)c(NC(=O)N2CCC(c3nc(C(=O)OCc4ccccc4I)cs3)CC2)c1` [Example 136] the logP [1] was 3.96^[b].
Compound `Cc1cc(C(F)(F)F)nn1CC(=O)N1CCC(F)(c2nc(C(=O)OC3CCCCC3)cs2)CC1` [Example 170] has a logP [1] of 4.07 and a logP [2] of 4.09.
For `COc1ccc(C)cc1NC(=O)N1CCC(c2nc(C(=O)OCc3c(F)cccc3F)cs2)CC1` [Example 164], the logP [1] was 3.66^[b].
`Cc1cc(C(F)(F)F)nn1CC(=O)N1CCN(c2nc(C(=O)OCc3ccc(F)cc3F)cs2)CC1` [Example 53] showed a logP [1] of 3.42 and a logP [2] of 3.45.
With `Cc1ccc(C)c(NC(=S)N2CCC(c3nc(C(=O)OC4CCCCC4)cs3)CC2)c1` [Example 63] the logP [1] was 4.17^[b].
